Reference: patent publication US5441941A, “1,2-dihydroellipticines with activity against CNS specific cancer” (The United States of America as represented by the …, priority 1993, dated 1995)

Experiments:
LOX IMVI = assay: NCI in vitro screen, SRB percent growth, Melanoma
DLD-1 = assay: cells; conditions: Homo sapiens
SF-268 = assay: NCI in vitro screen, SRB percent growth, CNS Cancer
OVCAR-8 = assay: NCI in vitro screen, SRB percent growth, Ovarian Cancer
MOLT-4 = assay: cells; conditions: Homo sapiens
SK-OV-3 = assay: NCI in vitro screen, SRB percent growth, Ovarian Cancer
KM20L2 = assay: cells; conditions: Homo sapiens
RPMI-8226 = assay: cells; conditions: Homo sapiens
UACC-62 = assay: NCI in vitro screen, SRB percent growth, Melanoma
HOP-62 = assay: NCI in vitro screen, SRB percent growth, Non-Small Cell Lung Cancer
KM12 = assay: NCI in vitro screen, SRB percent growth, Colon Cancer
DMS 114 = assay: cells; conditions: Homo sapiens
COLO 205 = assay: NCI in vitro screen, SRB percent growth, Colon Cancer
TK-10 = assay: NCI in vitro screen, SRB percent growth, Renal Cancer
CCRF-CEM = assay: NCI in vitro screen, SRB percent growth, Leukemia
A549/ATCC = assay: NCI in vitro screen, SRB percent growth, Non-Small Cell Lung Cancer
M19-MEL = assay: NCI in vitro screen, SRB percent growth, Melanoma
[1] = Log10 Concentration -4.0, 100 µM
[2] = DLD-1, read-out: Percent Growth
[3] = Log10 Concentration -7.0, 0.1 µM
[4] = MOLT-4, read-out: Percent Growth
[5] = KM-20L2, read-out: Percent Growth
[6] = RPMI-8226, read-out: Percent Growth

Q: `COc1ccc2[nH]c3c(C)c4c(c(C)c3c2c1)CN(C)C=C4` [Formula VII] was tested. Which “Percent Growth” value (LOX IMVI; [1]) did it give?
A: -19%

Q: And the “Percent Growth” value (LOX IMVI; Log10 Concentration -5.0)?
A: 58%

Q: What about the “Percent Growth” value (LOX IMVI; Log10 Concentration -6.0, 1 µM) of the same compound?
A: 119%

Q: What about the “Percent Growth” value (LOX IMVI; Log10 Concentration -8.0) of the same compound?
A: 129%

Q: What about the TGI (LOX IMVI; PG=0) of the same compound?
A: 56.9 µM

Q: And the GI50 (LOX IMVI; PG=+50)?
A: 12.8 µM

Q: What about the CC50 (LOX IMVI; read-out: LC-50, PG=-50) of the same compound?
A: > 100 µM

Q: What about the GI50 (DLD-1; DLD-1) of the same compound?
A: 3.23 µM

Q: And the CC50 (DLD-1; DLD-1, read-out: LC-50)?
A: > 100 µM

Q: And the activity at 0.01 µM (DLD-1; [2])?
A: 103%

Q: What about the activity at 0.1 µM (DLD-1; [2]) of the same compound?
A: 99%

Q: And the activity at 1 µM (DLD-1; [2])?
A: 75%

Q: And the activity at 10 µM (DLD-1; [2])?
A: 26%

Q: And the activity at 100 µM (DLD-1; [2])?
A: -15%

Q: And the IC (TGI) (DLD-1; DLD-1, read-out: TGI)?
A: 42.3 µM

Q: And the “Percent Growth” value (SF-268; [1])?
A: -55%

Q: What about the “Percent Growth” value (SF-268; Log10 Concentration -5.0) of the same compound?
A: -45%

Q: And the “Percent Growth” value (SF-268; Log10 Concentration -6.0, 1 µM)?
A: 2%

Q: And the “Percent Growth” value (SF-268; [3])?
A: 76%

Q: And the “Percent Growth” value (SF-268; Log10 Concentration -8.0)?
A: 91%

Q: And the TGI (SF-268; PG=0)?
A: 1.1 µM

Q: What about the GI50 (SF-268; PG=+50) of the same compound?
A: 0.223 µM

Q: What about the CC50 (SF-268; read-out: LC-50, PG=-50) of the same compound?
A: 35 µM

Q: What about the “Percent Growth” value (OVCAR-8; [1]) of the same compound?
A: -17%

Q: And the “Percent Growth” value (OVCAR-8; Log10 Concentration -5.0)?
A: 5%

Q: And the “Percent Growth” value (OVCAR-8; Log10 Concentration -6.0, 1 µM)?
A: 28%

Q: And the “Percent Growth” value (OVCAR-8; [3])?
A: 67%

Q: What about the “Percent Growth” value (OVCAR-8; Log10 Concentration -8.0) of the same compound?
A: 72%

Q: What about the TGI (OVCAR-8; PG=0) of the same compound?
A: 16.6 µM

Q: What about the GI50 (OVCAR-8; PG=+50) of the same compound?
A: 0.274 µM

Q: What about the CC50 (OVCAR-8; read-out: LC-50, PG=-50) of the same compound?
A: > 100 µM

Q: And the GI50 (MOLT-4; MOLT-4)?
A: 0.3 µM

Q: What about the CC50 (MOLT-4; MOLT-4, read-out: LC-50) of the same compound?
A: > 100 µM

Q: And the activity at 0.01 µM (MOLT-4; [4])?
A: 110%

Q: What about the activity at 0.1 µM (MOLT-4; [4]) of the same compound?
A: 68%

Q: What about the activity at 1 µM (MOLT-4; [4]) of the same compound?
A: 30%

Q: What about the activity at 10 µM (MOLT-4; [4]) of the same compound?
A: 8%

Q: And the activity at 100 µM (MOLT-4; [4])?
A: -27%

Q: What about the IC (TGI) (MOLT-4; MOLT-4, read-out: TGI) of the same compound?
A: 16.7 µM

Q: And the “Percent Growth” value (SK-OV-3; [1])?
A: -23%

Q: What about the “Percent Growth” value (SK-OV-3; Log10 Concentration -5.0) of the same compound?
A: 148%

Q: What about the “Percent Growth” value (SK-OV-3; Log10 Concentration -6.0, 1 µM) of the same compound?
A: 167%

Q: What about the “Percent Growth” value (SK-OV-3; [3]) of the same compound?
A: 159%

Q: And the “Percent Growth” value (SK-OV-3; Log10 Concentration -8.0)?
A: 192%

Q: What about the TGI (SK-OV-3; PG=0) of the same compound?
A: 73.4 µM

Q: What about the GI50 (SK-OV-3; PG=+50) of the same compound?
A: 73.4 µM

Q: And the CC50 (SK-OV-3; read-out: LC-50, PG=-50)?
A: > 100 µM

Q: And the GI50 (KM20L2; KM-20L2)?
A: 3.63 µM

Q: What about the CC50 (KM20L2; KM-20L2, read-out: LC-50) of the same compound?
A: > 100 µM

Q: What about the activity at 0.01 µM (KM20L2; [5]) of the same compound?
A: 106%

Q: What about the activity at 0.1 µM (KM20L2; [5]) of the same compound?
A: 104%

Q: What about the activity at 1 µM (KM20L2; [5]) of the same compound?
A: 82%

Q: And the activity at 10 µM (KM20L2; [5])?
A: 25%

Q: And the activity at 100 µM (KM20L2; [5])?
A: -34%

Q: And the IC (TGI) (KM20L2; KM-20L2, read-out: TGI)?
A: 26.4 µM

Q: And the GI50 (RPMI-8226; RPMI-8226)?
A: 6.31 µM

Q: And the CC50 (RPMI-8226; RPMI-8226, read-out: LC-50)?
A: > 100 µM

Q: And the activity at 0.01 µM (RPMI-8226; [6])?
A: 104%

Q: What about the activity at 0.1 µM (RPMI-8226; [6]) of the same compound?
A: 101%

Q: What about the activity at 1 µM (RPMI-8226; [6]) of the same compound?
A: 99%

Q: What about the activity at 10 µM (RPMI-8226; [6]) of the same compound?
A: 38%

Q: And the activity at 100 µM (RPMI-8226; [6])?
A: -38%

Q: And the IC (TGI) (RPMI-8226; RPMI-8226, read-out: TGI)?
A: 31.5 µM

Q: What about the “Percent Growth” value (UACC-62; [1]) of the same compound?
A: -44%

Q: What about the “Percent Growth” value (UACC-62; Log10 Concentration -5.0) of the same compound?
A: 31%

Q: And the “Percent Growth” value (UACC-62; Log10 Concentration -6.0, 1 µM)?
A: 88%

Q: What about the “Percent Growth” value (UACC-62; [3]) of the same compound?
A: 118%

Q: What about the “Percent Growth” value (UACC-62; Log10 Concentration -8.0) of the same compound?
A: 129%

Q: What about the TGI (UACC-62; PG=0) of the same compound?
A: 26.1 µM

Q: What about the GI50 (UACC-62; PG=+50) of the same compound?
A: 4.68 µM

Q: And the CC50 (UACC-62; read-out: LC-50, PG=-50)?
A: > 100 µM

Q: And the “Percent Growth” value (HOP-62; [1])?
A: -81%

Q: What about the “Percent Growth” value (HOP-62; Log10 Concentration -5.0) of the same compound?
A: -57%

Q: What about the “Percent Growth” value (HOP-62; Log10 Concentration -6.0, 1 µM) of the same compound?
A: 14%

Q: What about the “Percent Growth” value (HOP-62; [3]) of the same compound?
A: 106%

Q: What about the “Percent Growth” value (HOP-62; Log10 Concentration -8.0) of the same compound?
A: 115%

Q: What about the TGI (HOP-62; PG=0) of the same compound?
A: 1.58 µM

Q: And the GI50 (HOP-62; PG=+50)?
A: 0.406 µM

Q: What about the CC50 (HOP-62; read-out: LC-50, PG=-50) of the same compound?
A: 7.89 µM

Q: What about the “Percent Growth” value (KM12; [1]) of the same compound?
A: -86%

Q: And the “Percent Growth” value (KM12; Log10 Concentration -6.0, 1 µM)?
A: 28%

Q: And the “Percent Growth” value (KM12; [3])?
A: 59%

Q: What about the “Percent Growth” value (KM12; Log10 Concentration -8.0) of the same compound?
A: 78%

Q: What about the TGI (KM12; PG=0) of the same compound?
A: 2.32 µM

Q: What about the GI50 (KM12; PG=+50) of the same compound?
A: 0.194 µM

Q: What about the CC50 (KM12; read-out: LC-50, PG=-50) of the same compound?
A: 10.6 µM

Q: And the GI50 (DMS 114; DMS-114)?
A: 0.183 µM

Q: What about the IC (TGI) (DMS 114; DMS-114, read-out: TGI) of the same compound?
A: 1.7 µM

Q: What about the “Percent Growth” value (COLO 205; [1]) of the same compound?
A: -72%

Q: And the “Percent Growth” value (COLO 205; [3])?
A: 91%

Q: What about the “Percent Growth” value (COLO 205; Log10 Concentration -8.0) of the same compound?
A: 99%

Q: What about the TGI (COLO 205; PG=0) of the same compound?
A: 5.6 µM

Q: And the GI50 (COLO 205; PG=+50)?
A: 1.42 µM

Q: And the CC50 (COLO 205; read-out: LC-50, PG=-50)?
A: 37.1 µM

Q: What about the “Percent Growth” value (TK-10; [1]) of the same compound?
A: -6%

Q: And the “Percent Growth” value (TK-10; Log10 Concentration -5.0)?
A: 64%

Q: What about the “Percent Growth” value (TK-10; Log10 Concentration -6.0, 1 µM) of the same compound?
A: 114%

Q: What about the “Percent Growth” value (TK-10; [3]) of the same compound?
A: 127%

Q: What about the “Percent Growth” value (TK-10; Log10 Concentration -8.0) of the same compound?
A: 120%

Q: And the TGI (TK-10; PG=0)?
A: 82.7 µM

Q: And the GI50 (TK-10; PG=+50)?
A: 15.9 µM

Q: And the CC50 (TK-10; read-out: LC-50, PG=-50)?
A: > 100 µM

Q: And the “Percent Growth” value (CCRF-CEM; [1])?
A: -10%

Q: What about the “Percent Growth” value (CCRF-CEM; Log10 Concentration -5.0) of the same compound?
A: 29%

Q: And the “Percent Growth” value (CCRF-CEM; Log10 Concentration -6.0, 1 µM)?
A: 78%

Q: What about the “Percent Growth” value (CCRF-CEM; [3]) of the same compound?
A: 92%

Q: And the TGI (CCRF-CEM; PG=0)?
A: 54.5 µM

Q: And the GI50 (CCRF-CEM; PG=+50)?
A: 3.65 µM

Q: What about the CC50 (CCRF-CEM; read-out: LC-50, PG=-50) of the same compound?
A: > 100 µM

Q: What about the “Percent Growth” value (A549/ATCC; [1]) of the same compound?
A: -26%

Q: And the “Percent Growth” value (A549/ATCC; Log10 Concentration -5.0)?
A: 10%

Q: What about the “Percent Growth” value (A549/ATCC; Log10 Concentration -6.0, 1 µM) of the same compound?
A: 51%

Q: And the “Percent Growth” value (A549/ATCC; [3])?
A: 87%

Q: And the “Percent Growth” value (A549/ATCC; Log10 Concentration -8.0)?
A: 102%

Q: And the TGI (A549/ATCC; PG=0)?
A: 19.2 µM

Q: And the GI50 (A549/ATCC; PG=+50)?
A: 1.05 µM

Q: What about the CC50 (A549/ATCC; read-out: LC-50, PG=-50) of the same compound?
A: > 100 µM

Q: What about the “Percent Growth” value (M19-MEL; [1]) of the same compound?
A: -62%

Q: What about the “Percent Growth” value (M19-MEL; Log10 Concentration -5.0) of the same compound?
A: -36%

Q: What about the “Percent Growth” value (M19-MEL; Log10 Concentration -6.0, 1 µM) of the same compound?
A: 48%

Q: And the “Percent Growth” value (M19-MEL; [3])?
A: 95%

Q: What about the “Percent Growth” value (M19-MEL; Log10 Concentration -8.0) of the same compound?
A: 117%

Q: What about the TGI (M19-MEL; PG=0) of the same compound?
A: 3.7 µM

Q: And the GI50 (M19-MEL; PG=+50)?
A: 0.899 µM

Q: And the CC50 (M19-MEL; read-out: LC-50, PG=-50)?
A: 34.7 µM
